Values quoted from earlier work as cited in article PMC11345841, “Exploring 2-Sulfonylpyrimidine Warheads as Acrylamide Surrogates for Targeted Covalent Inhibition: A BTK Story” (Journal of Medicinal Chemistry, 2024).
Where two headings read alike, the source gives them in different places.

Test system: 468 human kinases
Settings: cited from earlier work; for %Control: @1000nM, ref Buhimschi et al. 2018; for Percent of Control: ref Buhimschi/Crews

C=CC(=O)N1CCC[C@@H](n2nc(-c3ccc(Oc4ccccc4)cc3)c3c(N)ncnc32)C1 [Compound 1g, Ibrutinib, reference compound]
number of kinases with ≥90 inhibition belonging to the TK family (including BTK) (1 μM): 36 kinases | number of kinases with ≥90 inhibition out of 468 (1 μM): 39 kinases | %Control (ABL1(E255K)-phosphorylated): 71% | %Control (ABL1(F317I)-nonphosphorylated): 30% | %Control (ABL1(F317L)-nonphosphorylated): 25% | %Control (ABL1(F317L)-phosphorylated): 49% | %Control (ABL1(H396P)-nonphosphorylated): 18% | %Control (ABL1(Q252H)-nonphosphorylated): 6.4% | %Control (ABL1(Q252H)-phosphorylated): 67% | %Control (ABL1(T315I)-nonphosphorylated): 100% | %Control (ABL1-nonphosphorylated): 9% | %Control (ABL1-phosphorylated): 69% | %Control (ABL2): 43% | %Control (ALK(C1156Y)): 91% | %Control (ALK(L1196M)): 96% | %Control (BMX): 38% | %Control (BRK): 1.4% | %Control (BTK): 0% | %Control (CSK): 2.4% | %Control (DDR2): 100% | %Control (EGFR(E746-A750del)): 5.1% | %Control (EGFR(G719C)): 0.35% | %Control (EGFR(G719S)): 0.45% | %Control (EGFR(L747-E749del, A750P)): 0.3% | %Control (EGFR(L747-S752del, P753S)): 12% | %Control (EGFR(L747-T751del,Sins)): 1.4% | %Control (EGFR(L858R)): 1.4% | %Control (EGFR(L858R,T790M)): 6.9% | %Control (EGFR(L861Q)): 0.1% | %Control (EGFR(S752-I759del)): 0% | %Control (EGFR(T790M)): 0.15% | %Control (EGFR): 0% | %Control (EPHA2): 96% | %Control (EPHA5): 100% | %Control (EPHA7): 100% | %Control (EPHA8): 78% | %Control (EPHB2): 100% | %Control (EPHB3): 89% | %Control (EPHB4): 100% | %Control (EPHB6): 8.6% | %Control (ERBB2): 0% | %Control (ERBB3): 0% | %Control (FAK): 93% | %Control (FER): 95% | %Control (FES): 100% | %Control (FGFR1): 42% | %Control (FGFR2): 42% | %Control (FGFR3(G697C)): 35% | %Control (FGFR3): 45% | %Control (FGFR4): 100% | %Control (FGR): 10% | %Control (FLT3(D835H)): 18% | %Control (FLT3(D835V)): 1.9% | %Control (FLT3(D835Y)): 44% | %Control (FLT3(K663Q)): 38% | %Control (FLT3(N841I)): 31% | %Control (FLT3(R834Q)): 54% | %Control (FLT3-autoinhibited): 94% | %Control (FLT3): 26% | %Control (FLT4): 38% | %Control (FRK): 11% | %Control (FYN): 5.3% | %Control (HCK): 0.3% | %Control (IGF1R): 100% | %Control (INSR): 87% | %Control (INSRR): 96% | %Control (ITK): 6.8% | %Control (JAK1(JH1domain-catalytic)): 100% | %Control (JAK1(JH2domain-pseudokinase)): 91% | %Control (JAK2(JH1domain-catalytic)): 87% | %Control (JAK3(JH1domain-catalytic)): 0% | %Control (KIT(A829P)): 21% | %Control (KIT(D816H)): 78% | %Control (KIT(L576P)): 42% | %Control (KIT(V559D)): 31% | %Control (KIT(V559D,T670I)): 94% | %Control (KIT(V559D,V654A)): 91% | %Control (KIT): 57% | %Control (LCK): 0.2% | %Control (LYN): 9.5% | %Control (MERTK): 74% | %Control (MET(M1250T)): 56% | %Control (MET(Y1235D)): 87% | %Control (PDGFRA): 48% | %Control (PDGFRB): 35% | %Control (RET(M918T)): 14% | %Control (RET(V804M)): 72% | %Control (RET): 9.3% | %Control (ROS1): 97% | %Control (SRC): 3.2% | %Control (SYK): 91% | %Control (TEC): 1.9% | %Control (TIE1): 61% | %Control (TIE2): 58% | %Control (TNK1): 23% | %Control (TNK2): 35% | %Control (TRKB): 82% | %Control (TXK): 3.8% | %Control (TYK2(JH1domain-catalytic)): 89% | %Control (TYRO3): 96% | %Control (YES): 2.6% | %Control (ZAP70): 77% | Percent of Control (ABL1(F317I)-nonphosphorylated): 30% | Percent of Control (ABL1(F317I)-phosphorylated): 67% | Percent of Control (ABL1(F317L)-nonphosphorylated): 25% | Percent of Control (ABL1(F317L)-phosphorylated): 49% | Percent of Control (ABL1(H396P)-nonphosphorylated): 18% | Percent of Control (ABL1(Q252H)-nonphosphorylated): 6.4% | Percent of Control (ABL1(Q252H)-phosphorylated): 67% | Percent of Control (ABL1(Y253F)-phosphorylated): 49% | Percent of Control (ABL1-nonphosphorylated): 9% | Percent of Control (ABL2): 43% | Percent of Control (ASK2 (MAP3K6)): 54% | Percent of Control (BLK): 0.1% | Percent of Control (BMX): 38% | Percent of Control (BRAF(V600E)): 59% | Percent of Control (BRK (PTK6)): 1.4% | Percent of Control (BTK): 0% | Percent of Control (CDK2): 66% | Percent of Control (CSK): 2.4% | Percent of Control (CSNK1E): 44% | Percent of Control (CTK (MATK)): 66% | Percent of Control (EGFR(E746-A750del)): 5.1% | Percent of Control (EGFR(G719C)): 0.35% | Percent of Control (EGFR(G719S)): 0.45% | Percent of Control (EGFR(L747-E749del, A750P)): 0.3% | Percent of Control (EGFR(L747-S752del, P753S)): 12% | Percent of Control (EGFR(L747-T751del,Sins)): 1.4% | Percent of Control (EGFR(L858R)): 1.4% | Percent of Control (EGFR(L858R,T790M)): 6.9% | Percent of Control (EGFR(L861Q)): 0.1% | Percent of Control (EGFR(S752-I759del)): 0% | Percent of Control (EGFR(T790M)): 0.15% | Percent of Control (EGFR): 0% | Percent of Control (EPHB6): 8.6% | Percent of Control (ERBB2): 0% | Percent of Control (ERBB3): 0% | Percent of Control (ERBB4): 0% | Percent of Control (ERN1): 38% | Percent of Control (FGFR1): 42% | Percent of Control (FGFR2): 42% | Percent of Control (FGFR3(G697C)): 35% | Percent of Control (FGFR3): 45% | Percent of Control (FGR): 10% | Percent of Control (FLT3(D835H)): 18% | Percent of Control (FLT3(D835V)): 1.9% | Percent of Control (FLT3(D835Y)): 44% | Percent of Control (FLT3(ITD)): 55% | Percent of Control (FLT3(ITD,D835V)): 58% | Percent of Control (FLT3(K663Q)): 38% | Percent of Control (FLT3(N841I)): 31% | Percent of Control (FLT3(R834Q)): 54% | Percent of Control (FLT3): 26% | Percent of Control (FLT4): 38% | Percent of Control (FRK): 11% | Percent of Control (FYN): 5.3% | Percent of Control (HCK): 0.3% | Percent of Control (ITK): 6.8% | Percent of Control (KIT(A829P)): 21% | Percent of Control (KIT(L576P)): 42% | Percent of Control (KIT(V559D)): 31% | Percent of Control (KIT): 57% | Percent of Control (LATS2): 66% | Percent of Control (LCK): 0.2% | Percent of Control (LIMK1): 41% | Percent of Control (LOK (STK10)): 41% | Percent of Control (LZK (MAP3K13)): 58% | Percent of Control (MAP3K2): 54% | Percent of Control (MAP3K15): 53% | Percent of Control (MEK1 (MAP2K1)): 14% | Percent of Control (MEK2 (MAP2K2)): 21% | Percent of Control (MEK5 (MAP2K5)): 0.8% | Percent of Control (MET(M1250T)): 56% | Percent of Control (MKK7 (MAP2K7)): 0.7% | Percent of Control (MKNK2): 50% | Percent of Control (NDR2 (STK38L)): 48% | Percent of Control (PDGFRA): 48% | Percent of Control (PDGFRB): 35% | Percent of Control (RET(M918T)): 14% | Percent of Control (RET): 9.3% | Percent of Control (RIPK2): 3.7% | Percent of Control (RIPK5 (DSTYK)): 15% | Percent of Control (SNARK (NUAK2)): 68% | Percent of Control (SRC): 3.2% | Percent of Control (SRMS): 0% | Percent of Control (SRPK1): 54% | Percent of Control (STK35): 55% | Percent of Control (STK36): 60% | Percent of Control (TEC): 1.9% | Percent of Control (TIE2 (TEK)): 58% | Percent of Control (TNK1): 23% | Percent of Control (TNK2): 35% | Percent of Control (TNNI3K): 53% | Percent of Control (TRKA (NTRK1)): 67% | Percent of Control (TRPM6): 54% | Percent of Control (TTK): 40% | Percent of Control (TXK): 3.8% | Percent of Control (VEGFR2 (KDR)): 59% | Percent of Control (WNK2): 65% | Percent of Control (YANK2 (STK32B)): 49% | Percent of Control (YES (YES1)): 2.6% | Percent of Control (ZAK): 38%
